The molecules below were run on Chenopodium album (common lambsquarters) (assay: Test Example-4: herbicidal effect by a foliage treatment after weeds are generated under upland field conditions). Conditions: 500 g a.i/ha, foliage treatment after emergence, about 14 days after treatment, score 0-5.
Format: in vivo
Method in brief: (§1)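 Weed seeds were sown in upland soil, covered with about 0.5 cm soil and grown 14 days with watering. Diluted wettable powder or emulsifiable concentrate was then sprayed uniformly on foliage at a set dosage in 4000 L water/ha. Weed control and corn injury were scored 0–5 about 14 days later.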

SMILES | Herbicidal effect Chenopodium album
C#CCOc1cc(-c2c(Cl)n3n(c2=O)CCCCC3)c(Cl)cc1Cl [Example 1-303] | 5 (Herbicidal effect/phytotoxicity was 90% or greater)
C#CCOc1cc(-c2c(Cl)n3n(c2=O)CCOCC3)c(F)cc1F [Example 1-368] | 5 (Herbicidal effect/phytotoxicity was 90% or greater)
C#CCOc1cc(-c2c(Cl)n3n(c2=O)CCCC3)c(Cl)cc1Cl [Example 1-302] | 5 (Herbicidal effect/phytotoxicity was 90% or greater)

Each molecule was assayed on Amaranthus viridis (green amaranthus) in the same assay as above. Conditions: 500 g a.i/ha, foliage treatment after emergence, about 14 days after treatment, score 0-5.
Format: in vivo
Method in brief: as §1

SMILES | Herbicidal effect Amaranthus viridis
C#CCOc1cc(-c2c(Cl)n3n(c2=O)CCCCC3)c(Cl)cc1Cl [Example 1-303] | 5 (Herbicidal effect/phytotoxicity was 90% or greater)
C#CCOc1cc(-c2c(Cl)n3n(c2=O)CCOCC3)c(F)cc1F [Example 1-368] | 5 (Herbicidal effect/phytotoxicity was 90% or greater)
C#CCOc1cc(-c2c(Cl)n3n(c2=O)CCCC3)c(Cl)cc1Cl [Example 1-302] | 5 (Herbicidal effect/phytotoxicity was 90% or greater)

These molecules were tested on Abutilon theophrasti (velvetleaf) in the same assay as above. Conditions: 500 g a.i/ha, foliage treatment after emergence, about 14 days after treatment, score 0-5.
Format: in vivo
Method in brief: as §1

SMILES | Herbicidal effect Abutilon theophrast
C#CCOc1cc(-c2c(Cl)n3n(c2=O)CCCCC3)c(Cl)cc1Cl [Example 1-303] | 5 (Herbicidal effect/phytotoxicity was 90% or greater)
C#CCOc1cc(-c2c(Cl)n3n(c2=O)CCOCC3)c(F)cc1F [Example 1-368] | 5 (Herbicidal effect/phytotoxicity was 90% or greater)
C#CCOc1cc(-c2c(Cl)n3n(c2=O)CCCC3)c(Cl)cc1Cl [Example 1-302] | 5 (Herbicidal effect/phytotoxicity was 90% or greater)

The molecules below were run on corn (assay: Test Example-2: phytotoxicity by a soil treatment before weeds are generated under upland field conditions). Conditions: application amount 500 g a.i/ha, soil spray treatment before weeds are generated, about 21 days after the treatment, score 0 to 5.
Format: in vivo
Excerpt: (§2) Using the formulation prepared according to the methods described above, the herbicidal effect of the bicyclic pyrazolinone derivative of the invention according to the methods shown in Test Examples below was examined. The herbicidal effect with respect to the test weeds or the phytotoxicity with respect to the test crops was examined according to the following criteria, and evaluated in six stage scores of 0 to 5. A vat having an area of 81 cm^2 and a depth of 3.5 cm was filled with upland soil, then, seeds of Amaranthus viridis (green amaranthus), Chenopodium album (common lambsquarters), and corn were seeded thereto, and the seeds were covered with soil of about 0.5 cm. Next day, a wettable powder or an emulsifiable concentrate of the compound of the present invention prepared according to Formulation Example was diluted, and a spray treatment was uniformly performed on the covered oil so as to be a predetermined dosage. The herbicidal effect with respect to the test weeds and the phytotoxicity with respect to corn about 21 days after the treatment were evaluated according to the evaluation criteria in six stages of 0 to 5 described above.

SMILES | Phytotoxicity Corn
C#CCOc1cc(-c2c(Cl)n3n(c2=O)CCCCC3)c(Cl)cc1Cl [Example 1-303] | 0 (Herbicidal effect/phytotoxicity was 0% to 10%)
C#CCOc1cc(-c2c(Cl)n3n(c2=O)CCOCC3)c(F)cc1F [Example 1-368] | 0 (Herbicidal effect/phytotoxicity was 0% to 10%)
C#CCOc1cc(-c2c(Cl)n3n(c2=O)CCCC3)c(Cl)cc1Cl [Example 1-302] | 2 (Herbicidal effect/phytotoxicity was 30% to 50%)

What follows are molecules tested on Chenopodium album (common lambsquarters) (assay: Test Example-2: herbicidal effect by a soil treatment before weeds are generated under upland field conditions). Conditions: application amount 500 g a.i/ha, soil spray treatment before weeds are generated, about 21 days after the treatment, score 0 to 5.
Format: in vivo
Excerpt: as §2

SMILES | Herbicidal effect Chenopodium album
C#CCOc1cc(-c2c(Cl)n3n(c2=O)CCCCC3)c(Cl)cc1Cl [Example 1-303] | 5 (Herbicidal effect/phytotoxicity was 90% or greater)
C#CCOc1cc(-c2c(Cl)n3n(c2=O)CCOCC3)c(F)cc1F [Example 1-368] | 5 (Herbicidal effect/phytotoxicity was 90% or greater)
C#CCOc1cc(-c2c(Cl)n3n(c2=O)CCCC3)c(Cl)cc1Cl [Example 1-302] | 5 (Herbicidal effect/phytotoxicity was 90% or greater)

Each molecule was assayed on Amaranthus viridis (green amaranthus) in the same assay as above. Conditions: application amount 500 g a.i/ha, soil spray treatment before weeds are generated, about 21 days after the treatment, score 0 to 5.
Format: in vivo
Excerpt: as §2

SMILES | Herbicidal effect Amaranthus viridis
C#CCOc1cc(-c2c(Cl)n3n(c2=O)CCCCC3)c(Cl)cc1Cl [Example 1-303] | 5 (Herbicidal effect/phytotoxicity was 90% or greater)
C#CCOc1cc(-c2c(Cl)n3n(c2=O)CCOCC3)c(F)cc1F [Example 1-368] | 5 (Herbicidal effect/phytotoxicity was 90% or greater)
C#CCOc1cc(-c2c(Cl)n3n(c2=O)CCCC3)c(Cl)cc1Cl [Example 1-302] | 5 (Herbicidal effect/phytotoxicity was 90% or greater)

The molecules below were run on corn (assay: Test Example-4: phytotoxicity by a foliage treatment after weeds are generated under upland field conditions). Conditions: 500 g a.i/ha, foliage treatment after emergence, about 14 days after treatment, score 0-5.
Format: in vivo
Method in brief: as §1

SMILES | Phytotoxicity Corn
C#CCOc1cc(-c2c(Cl)n3n(c2=O)CCCCC3)c(Cl)cc1Cl [Example 1-303] | 1 (Herbicidal effect/phytotoxicity was 10% to 30%)
C#CCOc1cc(-c2c(Cl)n3n(c2=O)CCOCC3)c(F)cc1F [Example 1-368] | 1 (Herbicidal effect/phytotoxicity was 10% to 30%)
C#CCOc1cc(-c2c(Cl)n3n(c2=O)CCCC3)c(Cl)cc1Cl [Example 1-302] | 1 (Herbicidal effect/phytotoxicity was 10% to 30%)

What follows are molecules tested on Scirpus juncoides (bulrush) (assay: Test Example-1: herbicidal effect by a treatment before weeds are generated under submerged conditions). Conditions: 500 g a.i/ha, pre-emergence treatment, about 15 days after treatment, score 0-5.
Format: in vivo
Method in brief: (§3)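 Paddy soil in cups was puddled, seeded with the weeds and kept flooded; compound as wettable powder or emulsifiable concentrate was diluted and applied into the water on the seeding day at a set dosage. Effect was scored about 15 days later on a 0–5 scale.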

SMILES | Herbicidal effect Scirpus juncoides
C#CCOc1cc(-c2c(Cl)n3n(c2=O)CCCCC3)c(Cl)cc1Cl [Example 1-303] | 5 (Herbicidal effect/phytotoxicity was 90% or greater)
C#CCOc1cc(-c2c(Cl)n3n(c2=O)CCOCC3)c(F)cc1F [Example 1-368] | 5 (Herbicidal effect/phytotoxicity was 90% or greater)
C#CCOc1cc(-c2c(Cl)n3n(c2=O)CCCC3)c(Cl)cc1Cl [Example 1-302] | 5 (Herbicidal effect/phytotoxicity was 90% or greater)

The molecules below were run on Cyperus difformis (smallflower umbrella plant) in the same assay as above. Conditions: 500 g a.i/ha, pre-emergence treatment, about 15 days after treatment, score 0-5.
Format: in vivo
Method in brief: as §3

SMILES | Herbicidal effect Cyperus difformis
C#CCOc1cc(-c2c(Cl)n3n(c2=O)CCCCC3)c(Cl)cc1Cl [Example 1-303] | 5 (Herbicidal effect/phytotoxicity was 90% or greater)
C#CCOc1cc(-c2c(Cl)n3n(c2=O)CCOCC3)c(F)cc1F [Example 1-368] | 5 (Herbicidal effect/phytotoxicity was 90% or greater)
C#CCOc1cc(-c2c(Cl)n3n(c2=O)CCCC3)c(Cl)cc1Cl [Example 1-302] | 5 (Herbicidal effect/phytotoxicity was 90% or greater)

What follows are molecules tested on Echinochloa oryzicola (barnyard grass) in the same assay as above. Conditions: 500 g a.i/ha, pre-emergence treatment, about 15 days after treatment, score 0-5.
Format: in vivo
Method in brief: as §3

SMILES | Herbicidal effect Echinochloa oryzicola
C#CCOc1cc(-c2c(Cl)n3n(c2=O)CCCCC3)c(Cl)cc1Cl [Example 1-303] | 5 (Herbicidal effect/phytotoxicity was 90% or greater)
C#CCOc1cc(-c2c(Cl)n3n(c2=O)CCOCC3)c(F)cc1F [Example 1-368] | 5 (Herbicidal effect/phytotoxicity was 90% or greater)
C#CCOc1cc(-c2c(Cl)n3n(c2=O)CCCC3)c(Cl)cc1Cl [Example 1-302] | 5 (Herbicidal effect/phytotoxicity was 90% or greater)

What follows are molecules tested on other annual broad leaf weeds (Lindernia procumbens, Rotala indica, Elatine triandra) in the same assay as above. Conditions: 500 g a.i/ha, pre-emergence treatment, about 15 days after treatment, score 0-5.
Format: in vivo
Method in brief: as §3

SMILES | Herbicidal effect Broadleaf weed
C#CCOc1cc(-c2c(Cl)n3n(c2=O)CCCCC3)c(Cl)cc1Cl [Example 1-303] | 5 (Herbicidal effect/phytotoxicity was 90% or greater)
C#CCOc1cc(-c2c(Cl)n3n(c2=O)CCOCC3)c(F)cc1F [Example 1-368] | 5 (Herbicidal effect/phytotoxicity was 90% or greater)
C#CCOc1cc(-c2c(Cl)n3n(c2=O)CCCC3)c(Cl)cc1Cl [Example 1-302] | 5 (Herbicidal effect/phytotoxicity was 90% or greater)

These molecules were tested on Eleocharis acicularis (needle spikerush) in the same assay as above. Conditions: 500 g a.i/ha, pre-emergence treatment, about 15 days after treatment, score 0-5.
Format: in vivo
Method in brief: as §3

SMILES | Herbicidal effect Eleocharis acicularis
C#CCOc1cc(-c2c(Cl)n3n(c2=O)CCCCC3)c(Cl)cc1Cl [Example 1-303] | 5 (Herbicidal effect/phytotoxicity was 90% or greater)
C#CCOc1cc(-c2c(Cl)n3n(c2=O)CCOCC3)c(F)cc1F [Example 1-368] | 5 (Herbicidal effect/phytotoxicity was 90% or greater)
C#CCOc1cc(-c2c(Cl)n3n(c2=O)CCCC3)c(Cl)cc1Cl [Example 1-302] | 5 (Herbicidal effect/phytotoxicity was 90% or greater)

The molecules below were run on Monochoria vaginalis (monochoria) in the same assay as above. Conditions: 500 g a.i/ha, pre-emergence treatment, about 15 days after treatment, score 0-5.
Format: in vivo
Method in brief: as §3

SMILES | Herbicidal effect Monochoria vaginalis
C#CCOc1cc(-c2c(Cl)n3n(c2=O)CCCCC3)c(Cl)cc1Cl [Example 1-303] | 5 (Herbicidal effect/phytotoxicity was 90% or greater)
C#CCOc1cc(-c2c(Cl)n3n(c2=O)CCOCC3)c(F)cc1F [Example 1-368] | 5 (Herbicidal effect/phytotoxicity was 90% or greater)
C#CCOc1cc(-c2c(Cl)n3n(c2=O)CCCC3)c(Cl)cc1Cl [Example 1-302] | 5 (Herbicidal effect/phytotoxicity was 90% or greater)

From patent publication US9580444B2, “Polycyclic pyrazolinone derivative and herbicide comprising same as effective component thereof” (priority 2013, dated 2017)
